Source: patent US10307413B2, “Tetrahydro- and dihydro-isoquinoline PRMT5 inhibitors and uses thereof” (Epizyme, Inc., priority 2013, dated 2019)
pEC50, pIC50: −log10 of the molar value. Like-named read-outs stand apart in the source and are kept apart here.

How the values were obtained:
PRMT5/MEP50 = PRMT5/MEP50 (Homo sapiens (Human), UniProt O14744); experiment: PRMT5 Biochemical Assay (PRMT5/MEP50 enzyme assay on peptide substrate, 3H-SAM Flashplate)
Procedure, shortened: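 Radiometric methylation of a biotin-tagged H4(1-15) peptide by human PRMT5/MEP50 from baculovirus/Sf9, with ³H-SAM incorporation read on streptavidin Flashplates. Buffer: Bicine pH 7.6, TCEP, BSG, Tween20; compound preincubated 30 min at 25 °C; stopped with 600 µM final unlabeled SAM. DMSO and SAH controls; IC50 from fitted % inhibition.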

[1] = system: symmetric di-methyl arginine in Z-138 cells; experiment: Z-138 Methylation Assay (In Cell Western for symmetric di-methyl arginine and DNA content); format: cell-based; details: Homo sapiens, read-out: ICW EC50
Procedure, shortened: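 In-cell western: symmetric di-methyl arginine signal ratioed to DRAQ5 DNA content after 96 h compound exposure of Z-138 cells seeded at 50,000 cells/mL.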

Z-138 cell line = experiment: Z-138 Proliferation Assay (Cell Titer Glo, 5 days); format: cell-based; details: Homo sapiens, 120 h, Z-138 cells, 5 days, read-out: Proliferation EC50
Procedure, shortened: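 Viability via CellTiter-Glo luminescence (ATP) after 5-day incubation at 37 °C, 5% CO2. Compounds tested in triplicate, nine 3-fold steps, highest final concentration 20 μM in 0.2% DMSO; 50% inhibitory concentration by 4-parameter fit of normalized curves.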

PRMT5/MEP50, sequence (O14744 other isoform, or with tags, fused parts or gaps): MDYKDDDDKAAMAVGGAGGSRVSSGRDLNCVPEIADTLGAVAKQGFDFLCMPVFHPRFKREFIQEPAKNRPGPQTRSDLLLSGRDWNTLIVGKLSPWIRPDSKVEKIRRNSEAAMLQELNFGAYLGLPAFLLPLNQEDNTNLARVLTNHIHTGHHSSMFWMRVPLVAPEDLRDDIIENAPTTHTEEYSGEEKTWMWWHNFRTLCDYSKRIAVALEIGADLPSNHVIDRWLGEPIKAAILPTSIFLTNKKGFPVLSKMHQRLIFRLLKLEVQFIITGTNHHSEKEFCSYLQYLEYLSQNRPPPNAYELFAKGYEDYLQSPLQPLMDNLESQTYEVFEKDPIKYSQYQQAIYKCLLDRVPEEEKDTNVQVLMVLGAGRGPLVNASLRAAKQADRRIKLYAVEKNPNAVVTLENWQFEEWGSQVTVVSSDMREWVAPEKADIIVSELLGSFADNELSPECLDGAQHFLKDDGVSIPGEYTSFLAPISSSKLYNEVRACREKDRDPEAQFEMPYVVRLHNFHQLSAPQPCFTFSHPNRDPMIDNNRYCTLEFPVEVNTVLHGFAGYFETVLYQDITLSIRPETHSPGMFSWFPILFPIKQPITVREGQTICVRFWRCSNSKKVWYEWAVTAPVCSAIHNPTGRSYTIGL
PRMT5/MEP50, sequence (Q9BQA1 other isoform, or with tags, fused parts or gaps partner): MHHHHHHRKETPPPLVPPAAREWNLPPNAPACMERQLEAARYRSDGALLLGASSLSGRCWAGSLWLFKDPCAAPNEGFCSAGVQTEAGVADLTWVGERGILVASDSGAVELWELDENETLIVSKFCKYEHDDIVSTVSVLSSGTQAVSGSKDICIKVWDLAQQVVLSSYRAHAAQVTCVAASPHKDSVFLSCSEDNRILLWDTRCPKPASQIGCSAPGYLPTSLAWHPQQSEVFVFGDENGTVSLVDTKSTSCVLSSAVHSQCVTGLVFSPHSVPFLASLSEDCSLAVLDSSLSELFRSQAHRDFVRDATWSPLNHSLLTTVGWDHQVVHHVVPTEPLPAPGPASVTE

| pIC50 (PRMT5/MEP50; PRMT5 biochemical assay) | pEC50 ([1]; In Cell Western methylation) | pIC50 (PRMT5/MEP50) | pEC50 [1] | Compound | pEC50 (Z-138 cell line; Cell Titer Glo) | pEC50 (Z-138 cell line) |
| --- | --- | --- | --- | --- | --- | --- |
| – | – | > 7.00 | > 7.00 | CCN1CCC(Oc2ccc(C(=O)NC[C@H](O)CN3CCc4ccccc4C3)cc2)CC1 [Compound 346] | – | 6.00 to 7.00 |
| > 7.00 | > 7.00 | – | – | C[C@H](N1CC(Nc2cc(C(=O)NC[C@H](O)CN3CCc4ccccc4C3)ncn2)C1)C(F)(F)F [Compound 445] | 5.00 to 6.00 | – |
| > 7.00 | 6.00 to 7.00 | – | – | CN[C@H]1CC[C@@H](Nc2cc(C(=O)NC[C@H](O)CN3CCc4ccccc4C3)ncn2)CC1 [Compound 630] | < 5.30 | – |
| – | – | > 7.00 | > 7.00 | CC(C)N1CCN(c2cc(C(=O)NC[C@H](O)CN3CCc4ccccc4C3)cc(NC3CCC3)n2)CC1 [Compound 397] | – | > 7.00 |
| > 7.00 | > 7.00 | – | – | O=C(NC[C@H](O)CN1CCc2ccccc2C1)c1cc(NC2CCN(C(=O)C3CC3)CC2)ncn1 [Compound 418] | > 7.00 | – |
| > 7.00 | > 7.00 | – | – | O=C(NC[C@H](O)CN1CCc2ccccc2C1)c1cc(N[C@H]2C[C@@H](C(=O)N3CCC3)C2)ncn1 [Compound 517] | 6.00 to 7.00 | – |
| 6.00 to 7.00 | 6.00 to 7.00 | – | – | CC(=O)N1CCC(Nc2cc(C(=O)NCC(F)CN3CCc4ccccc4C3)ncn2)CC1 (stereo not drawn) [Compound 656] | < 5.30 | – |
| > 7.00 | > 7.00 | – | – | CC(=O)N1CCC(Nc2cc(C(=O)NC[C@H](O)CN3CCc4ccccc4C3)nc(N(C)C)c2)CC1 [Compound 685] | 6.00 to 7.00 | – |
| – | – | > 7.00 | > 7.00 | O=C(NC[C@H](O)CN1CCc2ccccc2C1)c1cc(NC2CCC2)nc(N2CCNCC2)c1 [Compound 393] | – | > 7.00 |
| > 7.00 | > 7.00 | – | – | CC(=O)N1CCC(Nc2cc(C(=O)NCC(C)CN3CCc4ccccc4C3)ccn2)CC1 (stereo not drawn) [Compound 660] | 6.00 to 7.00 | – |
| > 7.00 | > 7.00 | – | – | CS(=O)(=O)CCN1CCC(Nc2cc(C(=O)NC[C@H](O)CN3CCc4ccccc4C3)ncn2)CC1 [Compound 569] | 6.00 to 7.00 | – |
| – | – | > 7.00 | > 7.00 | O=C(NC[C@H](O)CN1CCc2ccccc2C1)c1cncc(OC2CCN(CC(F)(F)F)CC2)c1 [Compound 289] | – | 6.00 to 7.00 |
| – | – | > 7.00 | > 7.00 | O=C(NC[C@H](O)CN1CCc2ccccc2C1)c1ccc(OCCCN2CCOCC2)cc1 [Compound 363] | – | 5.00 to 6.00 |
| > 7.00 | > 7.00 | – | – | CNC(=O)[C@H]1CC[C@H](Nc2cc(C(=O)NC[C@H](O)CN3CCc4ccccc4C3)ncn2)CC1 [Compound 602] | 6.00 to 7.00 | – |
| > 7.00 | > 7.00 | – | – | CC(C)C(=O)N1CCC(Nc2cc(C(=O)NC[C@H](O)CN3CCc4ccccc4C3)ccn2)CC1 [Compound 469] | > 7.00 | – |
| > 7.00 | > 7.00 | – | – | CC(=O)N1CC(Nc2ccnc(C(=O)NC[C@H](O)CN3CCc4ccccc4C3)c2)C1 [Compound 635] | > 7.00 | – |
| > 7.00 | > 7.00 | – | – | O=C(NC[C@H](O)CN1CCc2ccccc2C1)c1cc(N[C@H]2C[C@H](C(=O)N3CCC3)C2)ncn1 [Compound 509] | > 7.00 | – |
| 6.00 to 7.00 | < 6.00 | – | – | O=C(NC[C@H](O)CN1CCc2ccccc2C1)C1=CC2=N[C@@H](CO)CN2C=N1 [Compound 634] | < 5.30 | – |
| > 7.00 | > 7.00 | – | – | CN(C)C(=O)[C@H]1CC[C@H](Nc2cc(C(=O)NC[C@H](O)CN3CCc4ccccc4C3)ncn2)CC1 [Compound 587] | > 7.00 | – |
| – | – | > 7.00 | > 7.00 | O=C(NC[C@H](O)CN1CCc2ccccc2C1)c1ccc(OCCN2CCCCC2)cc1 [Compound 371] | – | 5.00 to 6.00 |
| > 7.00 | > 7.00 | – | – | CO[C@H]1CC[C@@H](Nc2cc(C(=O)NC[C@H](O)CN3CCc4ccccc4C3)ncn2)CC1 [Compound 624] | > 7.00 | – |
| > 7.00 | > 7.00 | – | – | CNC(=O)CN1CCC(Nc2cc(C(=O)NC[C@H](O)CN3CCc4ccccc4C3)ncn2)CC1 [Compound 533] | > 7.00 | – |
| – | – | > 7.00 | > 7.00 | O=C(NC[C@H](O)CN1CCc2ccccc2C1)c1cc(NC2CCC2)ncn1 [Compound 355] | – | > 7.00 |
| > 7.00 | > 7.00 | – | – | CN[C@H]1CC[C@H](Nc2cc(C(=O)NC[C@H](O)CN3CCc4ccccc4C3)ncn2)CC1 [Compound 661] | 6.00 to 7.00 | – |
| – | – | 6.00 to 7.00 | < 6.00 | Cc1cnc(NC2CN(CC(F)(F)F)C2)cc1C(=O)NC[C@H](O)CN1CCc2ccccc2C1 [Compound 356] | – | < 4.70 |
| > 7.00 | > 7.00 | – | – | CC(=O)N1CCC[C@@H](Nc2cc(C(=O)NC[C@H](O)CN3CCc4ccccc4C3)ncn2)C1 [Compound 571] | 5.00 to 6.00 | – |
| > 7.00 | > 7.00 | – | – | CCC(=O)N1CC(Nc2cc(C(=O)NC[C@H](O)CN3CCc4ccccc4C3)ccn2)C1 [Compound 488] | > 7.00 | – |
| > 7.00 | > 7.00 | – | – | CC(C)C(=O)N1CCC(Nc2cc(C(=O)NC[C@H](O)CN3CCc4ccccc4C3)ncn2)CC1 [Compound 408] | > 7.00 | – |
| – | – | > 7.00 | > 7.00 | O=C(NC[C@H](O)CN1CCc2ccccc2C1)c1cc(NC2CCC2)nc(N2CCCCC2)c1 [Compound 375] | – | 6.00 to 7.00 |

The next lines start with the compound.

| Compound | pIC50 (PRMT5/MEP50; PRMT5 biochemical assay) | pEC50 ([1]; In Cell Western methylation) | pIC50 (PRMT5/MEP50) | pEC50 [1] | pEC50 (Z-138 cell line; Cell Titer Glo) | pEC50 (Z-138 cell line) |
| --- | --- | --- | --- | --- | --- | --- |
| CC(C)C(=O)N1CC(Nc2cc(C(=O)NC[C@H](O)CN3CCc4ccccc4C3)ncn2)C1 [Compound 416] | > 7.00 | > 7.00 | – | – | > 7.00 | – |
| CC(=O)N1CCC(Nc2cc(C(=O)NCC(O)C(C)N3CCc4ccccc4C3)ncn2)CC1 (stereo not drawn) [Compound 609] | 6.00 to 7.00 | < 6.00 | – | – | < 5.30 | – |
| CN(C)CCCOc1ccc(C(=O)NC[C@H](O)CN2CCc3ccccc3C2)cc1 [Compound 345] | – | – | > 7.00 | > 7.00 | – | 6.00 to 7.00 |
| O=C(NC[C@H](O)CN1CCc2ccccc2C1)c1cc(NC2COC2)nc(N2CCNCC2)n1 [Compound 461] | > 7.00 | > 7.00 | – | – | > 7.00 | – |
| CC(=O)N1CCC(Nc2cc(C(=O)NCC(C)(O)CN3CCc4ccccc4C3)ncn2)CC1 (stereo not drawn) [Compound 649] | > 7.00 | > 7.00 | – | – | 5.00 to 6.00 | – |
| CC(=O)N1CCC(Nc2cc(C(=O)NC[C@H](O)CN3CCc4ccc(C)cc4C3)ncn2)CC1 [Compound 668] | > 7.00 | > 7.00 | – | – | 5.00 to 6.00 | – |
| CC(C)Cc1nc(NC2COC2)cc(C(=O)NC[C@H](O)CN2CCc3ccccc3C2)n1 [Compound 464] | > 7.00 | > 7.00 | – | – | > 7.00 | – |
| CC(=O)N1CC(Nc2cc(C(=O)NC[C@H](O)CN3CCc4ccccc4C3)nc(N3CCOCC3)n2)C1 [Compound 443] | > 7.00 | > 7.00 | – | – | > 7.00 | – |
| CC(=O)N1CCC(Nc2cc(C(=O)NC[C@H](O)CN3CCc4cccc(C)c4C3)ccn2)CC1 [Compound 665] | > 7.00 | > 7.00 | – | – | > 7.00 | – |
| CC(C)N1CCN(c2nc(NC3CNC3)cc(C(=O)NC[C@H](O)CN3CCc4ccccc4C3)n2)CC1 [Compound 500] | > 7.00 | 6.00 to 7.00 | – | – | 4.30 to 5.00 | – |
| CN(C)[C@H]1C[C@@H](Nc2cc(C(=O)NC[C@H](O)CN3CCc4ccccc4C3)ncn2)C1 [Compound 377] | – | – | > 7.00 | 6.00 to 7.00 | – | 5.00 to 6.00 |
| COCCNCCOc1ccc2cc(C(=O)NC[C@H](O)CN3CCc4ccccc4C3)ccc2c1 [Compound 369] | – | – | > 7.00 | > 7.00 | – | 5.00 to 6.00 |
| CC(=O)N(C)[C@H]1C[C@H](Nc2cc(C(=O)NC[C@H](O)CN3CCc4ccccc4C3)ncn2)C1 [Compound 564] | > 7.00 | > 7.00 | – | – | 6.00 to 7.00 | – |
| CNCCN(C)c1nc(NC2CNC2)cc(C(=O)NC[C@H](O)CN2CCc3ccccc3C2)n1 [Compound 482] | > 7.00 | 6.00 to 7.00 | – | – | 5.00 to 6.00 | – |
| O=C(NC[C@H](O)CN1CCc2ccccc2C1)c1cc(NC2CNC2)nc(N2CCNCC2)n1 [Compound 453] | > 7.00 | < 6.00 | – | – | < 4.70 | – |
| CC(NC(=O)c1cc(NC2CCN(C(=O)C3CC3)CC2)ncn1)C(O)CN1CCc2ccccc2C1 (stereo not drawn) [Compound 552] | > 7.00 | > 7.00 | – | – | 6.00 to 7.00 | – |
| COCCN(CCOC)[C@H]1C[C@H](Nc2cc(C(=O)NC[C@H](O)CN3CCc4ccccc4C3)ncn2)C1 [Compound 561] | > 7.00 | > 7.00 | – | – | 6.00 to 7.00 | – |
| CC(=O)N1CC(Nc2cc(C(=O)NC[C@H](O)CN3CCc4ccccc4C3)nc(N3CCN(C)CC3)n2)C1 [Compound 442] | > 7.00 | > 7.00 | – | – | 6.00 to 7.00 | – |
| CC(C)Oc1nc(NC2CNC2)cc(C(=O)NC[C@H](O)CN2CCc3ccccc3C2)n1 [Compound 467] | > 7.00 | 6.00 to 7.00 | – | – | 6.00 to 7.00 | – |
| O=C(NC[C@H](O)CN1CCc2ccccc2C1)c1cc(NC2COC2)nc(N2CCN(C(=O)C3CC3)CC2)n1 [Compound 498] | > 7.00 | > 7.00 | – | – | > 7.00 | – |
| CC(=O)N1CCC(Nc2cc(C(=O)NC[C@H](O)CN3CCc4ccccc4C3C)ncn2)CC1 (stereo partly drawn) [Compound 584] | > 7.00 | > 7.00 | – | – | 5.00 to 6.00 | – |
